In article PMC9844952 (Molecular Imaging and Biology, 2023):
Values joined by “and” are separate entries in the source; they are usually repeats but may differ in a detail not shown here. Equal entries are not always repeated. Square brackets hold non-standard residues; d marks the D form. Peptide text beside a SMILES is read from it. * marks the point of attachment. NODAGA = O=C(O)CN1CCN(CC(=O)O)CCN(C(CCC(=O)*)C(=O)O)CC1; Tic = O=C(O)[C@@H]1Cc2ccccc2CN1

Tests used:
[1] = system: dopaminergic (DA) neurons; assay: 6-OHDA partial lesion rat model: rotation and DA neuron loss
[2] = target: Glucocorticoid receptor (GR) (Mus musculus, UniProt P06537); assay: 18F-YJH08 biodistribution in mice; conditions: 30 min post injection, PC3 renal capsule tumors
Sequence of Glucocorticoid receptor (GR) (P06537 whole entry): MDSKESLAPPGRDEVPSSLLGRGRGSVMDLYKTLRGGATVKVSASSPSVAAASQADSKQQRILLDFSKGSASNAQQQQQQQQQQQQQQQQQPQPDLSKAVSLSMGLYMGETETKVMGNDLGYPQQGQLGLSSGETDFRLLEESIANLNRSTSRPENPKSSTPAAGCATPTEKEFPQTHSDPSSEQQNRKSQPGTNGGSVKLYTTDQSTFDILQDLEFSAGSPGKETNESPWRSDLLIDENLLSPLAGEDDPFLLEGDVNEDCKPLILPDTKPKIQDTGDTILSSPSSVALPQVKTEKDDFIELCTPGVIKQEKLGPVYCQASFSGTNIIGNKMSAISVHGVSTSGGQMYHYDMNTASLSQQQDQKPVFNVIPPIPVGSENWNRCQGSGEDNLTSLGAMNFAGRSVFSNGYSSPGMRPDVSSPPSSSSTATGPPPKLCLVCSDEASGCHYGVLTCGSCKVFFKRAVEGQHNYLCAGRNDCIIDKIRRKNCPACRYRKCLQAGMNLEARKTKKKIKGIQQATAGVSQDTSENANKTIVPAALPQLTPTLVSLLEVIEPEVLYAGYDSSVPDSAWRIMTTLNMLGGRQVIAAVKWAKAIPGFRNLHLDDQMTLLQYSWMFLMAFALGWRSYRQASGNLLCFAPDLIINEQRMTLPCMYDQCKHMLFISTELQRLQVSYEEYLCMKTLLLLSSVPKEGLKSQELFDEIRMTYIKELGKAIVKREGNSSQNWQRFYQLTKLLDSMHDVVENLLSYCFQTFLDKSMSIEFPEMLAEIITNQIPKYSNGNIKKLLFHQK

CMKLR1 = CMKLR1 (Mus musculus, UniProt P97468); assay: 64Cu-NODAGA-CG34 PET/CT in bleomycin-induced lung injury; assay type: in vivo
Sequence of CMKLR1 (P97468 whole entry): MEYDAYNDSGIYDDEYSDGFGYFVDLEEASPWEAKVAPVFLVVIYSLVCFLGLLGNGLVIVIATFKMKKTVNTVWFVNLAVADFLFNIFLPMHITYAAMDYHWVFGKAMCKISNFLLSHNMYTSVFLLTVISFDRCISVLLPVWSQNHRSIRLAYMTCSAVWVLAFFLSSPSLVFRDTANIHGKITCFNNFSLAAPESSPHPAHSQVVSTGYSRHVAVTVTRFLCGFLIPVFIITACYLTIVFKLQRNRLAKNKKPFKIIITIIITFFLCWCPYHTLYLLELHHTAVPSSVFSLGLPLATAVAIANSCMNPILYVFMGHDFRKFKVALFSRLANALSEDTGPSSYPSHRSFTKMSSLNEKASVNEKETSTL

[3] = as above; assay type: in vivo, mouse; conditions: mouse, lung, PET
aminopeptidase N (APN) = assay: kinetic parameters of probes for APN; assay type: biochemical
ccRCC lung tumors = assay: [18F]FGln PET/MRI of ccRCC lung tumors; parameters: species or system nude mice; conditions: mouse, in vivo
UMRC3 cells = assay: [18F]FGln uptake in UMRC3 cells; assay type: cell-based, human
myeloperoxidase (MPO) = assay: D-mannose in transient MCAO stroke with heMAMP MRI; assay type: in vivo, C57BL/6J mice
[4] = SWIR ratiometric imaging of ICG clearance; conditions: mean
[5] = target: deoxycytidine kinase (dCK) (Mus musculus, UniProt P43346); assay: TRE-515 treatment of EAE mouse models of MS; assay type: in vivo
Sequence of deoxycytidine kinase (dCK) (P43346 whole entry): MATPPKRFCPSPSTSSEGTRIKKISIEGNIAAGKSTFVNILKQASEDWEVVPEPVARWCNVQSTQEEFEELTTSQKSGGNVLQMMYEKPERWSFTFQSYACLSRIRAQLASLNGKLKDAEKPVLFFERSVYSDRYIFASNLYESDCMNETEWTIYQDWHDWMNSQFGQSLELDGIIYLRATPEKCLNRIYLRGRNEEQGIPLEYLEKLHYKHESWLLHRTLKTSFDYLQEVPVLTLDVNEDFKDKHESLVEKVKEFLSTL

CSF1R = CSF1R (Mus musculus, UniProt P09581); assay: [18F]1 brain uptake in control and LPS-treated mice; assay type: in vivo
Sequence of CSF1R (P09581 20-977): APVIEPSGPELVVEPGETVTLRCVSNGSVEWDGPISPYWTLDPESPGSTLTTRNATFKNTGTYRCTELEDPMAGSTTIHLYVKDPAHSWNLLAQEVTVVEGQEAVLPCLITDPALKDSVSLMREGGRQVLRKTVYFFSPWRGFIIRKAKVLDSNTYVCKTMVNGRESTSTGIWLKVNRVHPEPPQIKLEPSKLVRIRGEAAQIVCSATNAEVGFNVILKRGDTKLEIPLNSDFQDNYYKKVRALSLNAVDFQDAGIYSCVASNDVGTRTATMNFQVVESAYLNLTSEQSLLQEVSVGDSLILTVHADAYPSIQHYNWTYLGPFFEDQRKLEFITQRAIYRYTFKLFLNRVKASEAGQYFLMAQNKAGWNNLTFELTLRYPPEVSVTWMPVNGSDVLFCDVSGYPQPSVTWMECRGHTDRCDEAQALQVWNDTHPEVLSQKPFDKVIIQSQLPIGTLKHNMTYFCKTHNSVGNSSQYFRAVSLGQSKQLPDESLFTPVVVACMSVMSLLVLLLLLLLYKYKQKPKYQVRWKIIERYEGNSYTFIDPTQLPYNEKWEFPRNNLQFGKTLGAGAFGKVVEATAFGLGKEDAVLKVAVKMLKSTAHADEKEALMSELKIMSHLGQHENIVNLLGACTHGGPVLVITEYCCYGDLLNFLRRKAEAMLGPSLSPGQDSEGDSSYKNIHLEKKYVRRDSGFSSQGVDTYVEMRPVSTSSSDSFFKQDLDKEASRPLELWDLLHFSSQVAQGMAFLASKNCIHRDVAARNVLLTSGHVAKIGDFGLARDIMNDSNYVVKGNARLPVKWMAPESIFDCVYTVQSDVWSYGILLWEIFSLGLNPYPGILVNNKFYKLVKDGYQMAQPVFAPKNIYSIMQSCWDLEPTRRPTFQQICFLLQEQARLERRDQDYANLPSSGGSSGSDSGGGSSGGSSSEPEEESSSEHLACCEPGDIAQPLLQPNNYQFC

K+ channels = assay: first-in-human [18F]3F4AP brain PET; assay type: in vivo
IDO1 = IDO1 (Mus musculus, UniProt P28776); assay: small animal PET in B16F10 mouse models; assay type: in vivo
Sequence of IDO1 (P28776 whole entry): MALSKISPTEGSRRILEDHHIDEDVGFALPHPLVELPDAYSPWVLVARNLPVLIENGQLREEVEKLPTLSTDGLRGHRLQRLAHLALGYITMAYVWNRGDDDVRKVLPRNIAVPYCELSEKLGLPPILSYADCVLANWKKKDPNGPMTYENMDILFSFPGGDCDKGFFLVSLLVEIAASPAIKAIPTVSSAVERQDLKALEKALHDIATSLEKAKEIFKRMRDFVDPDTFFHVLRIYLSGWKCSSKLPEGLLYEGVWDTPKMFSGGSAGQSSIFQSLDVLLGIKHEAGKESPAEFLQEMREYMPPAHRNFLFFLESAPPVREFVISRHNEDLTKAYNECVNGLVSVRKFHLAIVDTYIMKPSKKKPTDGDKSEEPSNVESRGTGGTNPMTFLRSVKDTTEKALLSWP

HER2 and EGFRvIII = assay: SNIPR-PET T cell imaging in dual xenografts; conditions: in vivo
EGFR = EGFR (Homo sapiens, UniProt P00533); assay: 89Zr-panitumumab PET in A431 xenografts with metformin; assay type: in vivo, athymic nude mice; conditions: acute metformin
HER2 = HER2 (Homo sapiens, UniProt P04626); assay: 89Zr-trastuzumab PET in NCIN87 xenografts with metformin; assay type: in vivo, athymic nude mice
Sequence of HER2 (P04626 23-1255): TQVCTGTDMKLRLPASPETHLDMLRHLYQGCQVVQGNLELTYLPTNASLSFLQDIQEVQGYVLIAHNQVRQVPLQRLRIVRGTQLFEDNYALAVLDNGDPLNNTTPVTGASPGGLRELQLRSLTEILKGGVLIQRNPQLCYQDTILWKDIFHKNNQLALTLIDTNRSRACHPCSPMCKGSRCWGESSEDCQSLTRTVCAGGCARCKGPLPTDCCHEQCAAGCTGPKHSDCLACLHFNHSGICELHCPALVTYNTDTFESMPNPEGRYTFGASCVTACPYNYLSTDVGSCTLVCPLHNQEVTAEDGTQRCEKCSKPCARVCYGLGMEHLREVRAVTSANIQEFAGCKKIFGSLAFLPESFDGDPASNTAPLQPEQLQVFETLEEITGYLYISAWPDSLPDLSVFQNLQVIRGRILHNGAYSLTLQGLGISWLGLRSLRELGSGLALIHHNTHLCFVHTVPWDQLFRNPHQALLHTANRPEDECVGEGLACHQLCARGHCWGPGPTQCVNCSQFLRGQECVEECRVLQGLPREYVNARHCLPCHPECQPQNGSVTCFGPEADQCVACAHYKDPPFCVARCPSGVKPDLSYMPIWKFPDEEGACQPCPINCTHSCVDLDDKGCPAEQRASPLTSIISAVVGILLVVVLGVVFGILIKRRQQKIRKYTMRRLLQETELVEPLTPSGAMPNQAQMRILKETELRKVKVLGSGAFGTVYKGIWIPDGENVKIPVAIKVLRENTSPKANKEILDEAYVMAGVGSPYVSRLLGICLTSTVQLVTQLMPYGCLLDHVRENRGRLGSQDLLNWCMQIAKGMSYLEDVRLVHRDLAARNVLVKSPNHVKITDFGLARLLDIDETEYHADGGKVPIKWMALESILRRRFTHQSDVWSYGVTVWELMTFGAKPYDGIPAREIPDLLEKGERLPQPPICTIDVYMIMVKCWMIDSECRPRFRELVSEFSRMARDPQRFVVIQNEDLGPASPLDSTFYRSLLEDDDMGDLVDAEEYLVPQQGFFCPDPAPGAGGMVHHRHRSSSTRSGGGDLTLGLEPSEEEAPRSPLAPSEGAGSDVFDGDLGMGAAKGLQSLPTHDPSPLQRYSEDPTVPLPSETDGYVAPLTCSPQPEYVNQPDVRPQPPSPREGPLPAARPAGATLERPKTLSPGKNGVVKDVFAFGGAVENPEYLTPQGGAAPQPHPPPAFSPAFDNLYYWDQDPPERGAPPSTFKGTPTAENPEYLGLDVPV

[6] = system: YUMM1.7 melanoma xenografts; assay: BRAF/MEK inhibition in YUMM1.7 melanoma xenografts; assay type: in vivo, mice; conditions: for production of 13C-lactate from 13C-glucose: 24 h after treatment; for tumor growth vs control group: mouse, in vivo
[7] = tumor boron content by ICP-MS; assay type: in vivo, mice; conditions: 3h after intraperitoneal injection
Disialoganglioside GD2 = assay: Serial PET/CT of 89Zr-dinutuximab in B78 melanoma mice; assay type: in vivo, mouse
OX40 [8] = target: T1, OX40 (Homo sapiens, UniProt P43489); assay: [89Zr]huOX40mAb binding to OX40+ HEK293 cells; assay type: cell-based
T1 sequence (P43489 29-277): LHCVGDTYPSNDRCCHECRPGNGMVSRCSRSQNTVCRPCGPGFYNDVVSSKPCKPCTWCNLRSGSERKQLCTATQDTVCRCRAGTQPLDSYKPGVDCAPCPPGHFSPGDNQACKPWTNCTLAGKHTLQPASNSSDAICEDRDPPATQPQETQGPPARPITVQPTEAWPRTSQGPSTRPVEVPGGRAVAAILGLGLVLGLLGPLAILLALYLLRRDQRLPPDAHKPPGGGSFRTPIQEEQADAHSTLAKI

OX40 [9] = target: T1, OX40; assay: [89Zr]huOX40mAb PET in HEK293 tumor mice; assay type: in vivo, NSG mice; conditions: 72 hours p.i., PET ROI
OX40 [10] = target: T1, OX40; assay: [89Zr]huOX40mAb binding to primary human T cells; assay type: cell-based
[11] = 12 μg 6-OHDA into right striatum

NCCc1cc(O)c(O)cc1O [6-OHDA, 6-hydroxydopamine]
APO-induced rotations, 1st week [1, 11]: 6.4 ± 2.4 turns/ min
APO-induced rotations, 3rd week [1, 11]: 11.3±4.3 turns/ min
DA neurons loss in treated right striatum ([1]; [18F]D6-FP-(+)-DTBZ PET, 4th week): approximately 60%

COc1cccc2c1-c1ccc3c(c1C(Cc1ccc([18F])cc1)O2)C(C)=CC(C)(C)N3 (stereo not drawn) [18F-YJH08]
tumoral uptake [2]: ~ 2 % ID/g

CC(C)C[C@H](NC(=O)[C@H](Cc1ccccc1)NC(=O)[C@@H](Cc1ccc(O)cc1)NC(=O)CCC(C(=O)O)N1CCN(CC(=O)O)CCN(CC(=O)O)CC1)C(=O)N1CCC[C@H]1C(=O)N[C@H](CO)C(=O)N[C@@H](CCC(N)=O)C(=O)N[C@@H](Cc1ccccc1)C(=O)N[C@H](C)C(=O)N1Cc2ccccc2C[C@H]1C(=O)N[C@@H](CO)C(=O)O (stereo partly drawn) [64Cu-NODAGA-CG34, metal not drawn] ({NODAGA}-[dY]FLP[dS]QF[dA][Tic]S-OH; N-terminus and C-terminus assumed)
uptake on co-injection of excess NODAGA-CG34 (CMKLR1; 100x molar excess non-radiolabeled): near-completely blocked
lung %ID/gmax, 1 week after bleomycin (CMKLR1; PET): 4.04±0.87 %ID/g
tissue uptake ([3]; lung %ID/gmax, 2 weeks): 3.35 ± 0.47 %ID/g
tissue uptake ([3]; lung %ID/gmax, 4 weeks): 1.96 ± 0.19 %ID/g
tissue uptake ([3]; lung %ID/gmax, baseline): 1.38 ± 0.1 %ID/g
tissue uptake ([3]; lung %ID/gmean, 1 week after bleomycin): 2.47 ± 0.67 %ID/g
tissue uptake ([3]; lung %ID/gmean, 2 weeks): 1.83 ± 0.3 %ID/g
tissue uptake ([3]; lung %ID/gmean, 4 weeks): 1.03 ± 0.1 %ID/g
tissue uptake ([3]; lung %ID/gmean, baseline): 0.7 ± 0.06 %ID/g

C[C@H](N)C(N)=O [Ala-NH2]
Km (aminopeptidase N (APN)): 15.7 ± 4.4 mM

O=C(Cc1cccc(OC(F)(F)F)c1)Nc1ccc(CCCCc2nnc(NC(=O)Cc3ccccn3)s2)nn1 [CB-839]
effect on [18F]FGln retention in lung tumors (ccRCC lung tumors): did not change significantly
effect on [18F]FGln cellular uptake (UMRC3 cells): increased

OC[C@H]1OC(O)[C@@H](O)[C@@H](O)[C@@H]1O (stereo partly drawn) [D-mannose]
neurological deficit scores vs PBS (myeloperoxidase (MPO); 450mg/kg i.p. daily): improved neurological deficit scores
heMAMP MRI enhancement in the infarcted area (myeloperoxidase (MPO); day 10, p=0.0027): decreased

CC1(C)C(/C=C/C=C/C=C/C=C2\N(CCCCS(=O)(=O)O)c3ccc4ccccc4c3C2(C)C)=[N+](CCCCS(=O)(=O)[O-])c2ccc3ccccc3c21 [ICG, indocyanine green]
blood half-life, isoflurane ([4]; sd 0.28, n=4): 2.56 min
blood half-life, awake ([4]; sd 0.73, n=4): 2.81 min
liver clearance, isoflurane ([4]; sd 2.50, n=3): 18.44 min
liver clearance, awake ([4]; sd 3.29, n=9): 18.71 min

COc1ccc(-c2nc([C@@H](C)Sc3nc(N)cc(N)n3)c(C)s2)cc1OCCN1CCOCC1 [TRE-515]
clinical symptoms ([5]; MOG35-55 and PLP139-151 EAE models): limited clinical symptoms
side effects ([5]; both MS mouse models): no observable side effects
plasma levels of deoxycytidine ([5]; mouse, in vivo): increased

Cc1cccc(COc2ccccc2CN(CC[C@H](N)C(=O)O)Cc2ccccc2OCc2cccc(C)c2)c1 [V-9302]
reduction of [18F]FGln cell uptake (UMRC3 cells; treatment with inhibitor): 20-50%

CC1CCN(c2cc(N3CCN(CC[18F])CC3)ccc2NC(=O)c2cc(C#N)c[nH]2)CC1 [[18F]1]
peak brain uptake in control mice (CSF1R; 5 min post-administration): 3.6 %ID/g tissue
increase in brain uptake in LPS group (CSF1R; LPS-treated vs control mice): 46%

Nc1ccncc1[18F] [[18F]3F4AP]
VT in gray matter (K+ channels; 1T model): 1.52-1.69 mL.cm^-3
VT in white matter (K+ channels; 1T model): 1.22-1.29 mL.cm^-3
VT in MS lesions (K+ channels; 2T model, two lesions of one MS subject): 2.24 mL. cm^-3 and 2.26 mL. cm^-3
whole-blood to plasma ratio (K+ channels; after 15 min): 0.88 ± 0.01
radioactivity corresponding to parent compound (K+ channels; plasma, 90 min post injection, Radio-HPLC, average): 31%
peak SUV in gray matter (K+ channels; ~3 min, control subjects): 5-7 SUV
peak SUV in white matter (K+ channels; ~3 min, control subjects): 2-4 SUV

COc1ccc2[nH]cc(C[C@H](N)C(=O)O)c2c1[18F] [[18F]-L-T13, 4-F-5-OMe-tryptophan]
tumor uptake (IDO1): 9.57±0.26 %ID/g
tumor/muscle uptake ratio (IDO1): 4.57±0.2

NC(=O)[C@H]([18F])C[C@H](N)C(=O)O [[18F]FGln, (2S,4R)-4-[18F]fluoroglutamine]
retention in lung tumors vs muscle (ccRCC lung tumors): 2 fold
retention in lung tumors vs normal lung tissue (ccRCC lung tumors): 1.5 fold
cell uptake in UMRC3 vs HEK293 cells (UMRC3 cells): 2 fold
reduction of tracer cell uptake by excess glutamine (UMRC3 cells; excess glutamine in the media): 60-90%

Nc1nc2c(ncn2CCC(CO)C[18F])c(=O)[nH]1 (stereo not drawn) [[18F]FHBG]
signal in antigen-expressing tumors vs controls (HER2 and EGFRvIII): > 10 fold

CC(=O)NCC1CN(c2ccc(N3CCSCC3)c([18F])c2)C(=O)O1 (stereo not drawn) [[18F]sutezolid]
brain penetration in TB meningitis (mouse, in vivo): penetrated the brain parenchyma
penetration in lung lesions vs unaffected lung (pulmonary TB, P< 0.05): significantly lower penetration in the lung lesions

CN(C)C(=N)N=C(N)N [metformin]
uptake of 89Zr-labeled Panitumumab, control vs metformin-treated tumors (EGFR): ~ 1.8
lowering of [89Zr]Zr-DFO-Trastuzumab tumor uptake by daily metformin (HER2; 200 mg/kg ip for 11 consecutive days): 3.7 fold
%ID/g of 89Zr-labeled Trastuzumab, control vs acute metformin tumors (HER2; 24 h post-injection, metformin 250 mg/kg oral): ~ 1.6

CC(=O)Nc1cccc(-n2c(=O)n(C3CC3)c(=O)c3c(Nc4ccc(I)cc4F)n(C)c(=O)c(C)c32)c1 [trametinib]
production of 13C-lactate from 13C-glucose [6]: significantly reduced
tumor growth vs control group [6]: significantly delayed

CCCS(=O)(=O)Nc1ccc(F)c(C(=O)c2c[nH]c3ncc(-c4ccc(Cl)cc4)cc23)c1F [vemurafenib]
production of 13C-lactate from 13C-glucose [6]: significantly reduced
tumor growth vs control group [6]: significantly delayed

boronophenylalanine-fructose [BPA-Fr]
boron content of the tumor [7]: around 42±13 ppm

B1: 89Zr-dinutuximab: anti-GD2 mAb dinutuximab radiolabeled via DFO (antibody, chains of the INN, looked up, V domains shown)
VH: EVQLLQSGPELEKPGASVMISCKASGSSFTGYNMNWVRQNIGKSLEWIGAIDPYYGGTSYNQKFKGRATLTVDKSSSTAYMHLKSLTSEDSAVYYCVSGMEYWGQGTSVTVSS
VL: EIVMTQSPATLSVSPGERATLSCRSSQSLVHRNGNTYLHWYLQKPGQSPKLLIHKVSNRFSGVPDRFSGSGSGTDFTLKISRVEAEDLGVYFCSQSTHVPPLTFGAGTKLELK
modifications: 89Zr-DFO
tumor uptake (Disialoganglioside GD2; 4 hours, PET): 6.5 %ID/g
tumor uptake (peak) (Disialoganglioside GD2; 71 hours, PET): 12 %ID/g
blood uptake (Disialoganglioside GD2; 170 hours): < 2 %ID/g
liver uptake (Disialoganglioside GD2; 170 hours): ~ 6 %ID/g
normal tissues uptake except liver (Disialoganglioside GD2; 170 hours): < 5 %ID/g
normal tissues uptake (Disialoganglioside GD2; initial): < 11 %ID/g

B2: [89Zr]huOX40mAb: DFO-conjugated human OX40 mAb Ivuxolimab labeled with 89Zr (conjugate, chains of the INN, looked up)
VH: EVQLVESGGGLVQPGGSLRLSCAASGFTFSSYSMNWVRQAPGKGLEWVSYISSSSSTIDYADSVKGRFTISRDNAKNSLYLQMNSLRDEDTAVYYCARESGWYLFDYWGQGTLVTVSS
VL: DIQMTQSPSSLSASVGDRVTITCRASQGISSWLAWYQQKPEKAPKSLIYAASSLQSGVPSRFSGSGSGTDFTLTISSLQPEDFATYYCQQYNSYPPTFGGGTKVEIK
modifications: DFO; 89Zr
binding to OX40+ HEK293 vs parental HEK293 cells (OX40 [8]): 26.8 fold
reduction of binding to OX40+ HEK293 cells by blocking (OX40 [8]; 25-fold excess cold mAb): 87%
uptake in HEK293 tumors (OX40 [9]): 2.5 ± 0.7 %ID/g
binding to activated (OX40+) vs resting T cells (OX40 [10]): 10.8 fold
reduction of binding to activated T cells by blocking (OX40 [10]; 25-fold excess cold mAb): 88%
